This note sets out measurements from publication PMC10132981, “Formate overflow drives toxic folate trapping in MTHFD1 inhibited cancer cells” (Nature Metabolism, 2023).

A word on the EC50: it is the concentration at which the effect is half-maximal.

Structures are written as SMILES. Like-named read-outs stand apart in the source and are kept apart here.

Experiment in all cases: cells
Experiment [1] relates to HCT116. Details: species or system SW620, SW620 MTHFD2-/-, PA-TU-8988T; Resazurin cell viability dose-response in 384-well plates, fluorescence at 595 nm, logistic fit. As to conditions: Homo sapiens, HCT-116, 96 h, Figure 1=Extended Data Fig. 2a; C=RPMI+GlutaMAX (10% FBS, 1% P/S); D=Vehicle; 96 h viability, no metabolite rescue (vehicle); read-out: EC50 compound.
In experiment [2] the test system is SW620. On the set-up: species or system SW620 MTHFD2-/-, HCT116, PA-TU-8988T; Resazurin cell viability dose-response in 384-well plates, fluorescence at 595 nm, logistic fit. As to conditions: Homo sapiens, SW-620, 96 h, D=Vehicle, 96 h viability, no metabolite rescue (vehicle), read-out: EC50 compound.
Experiment [3] deals with SW620 WT. Details: species or system SW620 MTHFD2-/-, HCT116, PA-TU-8988T; Resazurin cell viability dose-response in 384-well plates, fluorescence at 595 nm, logistic fit. As to conditions: Homo sapiens, SW-620, 96 h, D=Vehicle, 96 h viability, no metabolite rescue (vehicle), read-out: EC50 compound.
The test system of experiment [4] is SW620 MTHFD2-/-. Details: species or system HCT116, PA-TU-8988T; Resazurin cell viability dose-response in 384-well plates, fluorescence at 595 nm, logistic fit. Particulars: Homo sapiens, SW-620, 96 h, C=RPMI+GlutaMAX (5% dFBS, 1% P/S), D=Vehicle, 96 h viability, no metabolite rescue (vehicle), read-out: EC50 compound.
Experiment [5] deals with SW620 MTHFD2 -/-. Details: species or system HCT116, PA-TU-8988T; Resazurin cell viability dose-response in 384-well plates, fluorescence at 595 nm, logistic fit. As to conditions: Homo sapiens, SW-620, 96 h, C=RPMI+GlutaMAX (5% dFBS, 1% P/S), D=Vehicle, 96 h viability, no metabolite rescue (vehicle), read-out: EC50 compound.
The test system of experiment [6] is PA-TU-8988T. Details: species or system SW620, SW620 MTHFD2-/-, HCT116; Resazurin cell viability dose-response in 384-well plates, fluorescence at 595 nm, logistic fit. Particulars: Homo sapiens, PaTu 8988t, 96 h, Figure 1=Extended Data Fig. 3e; C=DMEM+GlutaMAX (5% dFBS, 1% P/S); D=Vehicle; 96 h viability, no metabolite rescue (vehicle); read-out: EC50 compound.

The mark [7] stands for this setting: Figure 1=Extended Data Fig. 2b, C=RPMI+GlutaMAX (10% FBS, 1% P/S).
The mark [8] stands for this setting: Figure 1=Extended Data Fig. 2c, C=RPMI+GlutaMAX (10% FBS, 1% P/S).
Setting [9] is: Figure 1=Extended Data Fig. 3b, C=RPMI+GlutaMAX (5% dFBS, 1% P/S).
Setting [10] is: C=RPMI+GlutaMAX (5% FBS, 1% P/S).
[11] abbreviates: Figure 1=Extended Data Fig. 3c, C=RPMI+GlutaMAX (5% dFBS, 1% P/S).

For `O=c1[nH]cc(F)c(=O)[nH]1` [5-FU], the EC50 in experiment [1] came out at 2140 nM; in experiment [2] (Figure 1=2f, C=RPMI+GlutaMAX (10% FBS, 1% P/S)), 5350 nM; in experiment [2] (setting [7]), 5170 nM; in experiment [2] (setting [8]), 4630 nM.
Take `Cc1c(N2CCN(C)[C@@H](C)C2)ccc2c3c(c(=O)oc12)CN(C(=O)c1ccc(NS(C)(=O)=O)c(OC(F)(F)F)c1)CC3` [DS18561882]: the half-maximal effective concentration (EC50) in experiment [3] (Figure 1=3k, C=RPMI+GlutaMAX (5% dFBS, 1% P/S)) was 954 nM; in experiment [3] (setting [9]), 772 nM; in experiment [2] (setting [10]), above 10000 nM; in experiment [2] (Figure 1=1d, C=RPMI+GlutaMAX (10% FBS, 1% P/S)), 491 nM; in experiment [2] (Figure 1=3d, C=RPMI+GlutaMAX (5% dFBS, 1% P/S)), 954 nM; in experiment [2] (Figure 1=Extended Data Fig.5d, C=RPMI+GlutaMAX (5% dFBS, 1% P/S)), 320 nM. The EC50 is 162 nM in experiment [4] (Figure 1=6f), 551 nM in experiment [5] (Figure 1=3o) and 57.4 nM in experiment [5] (Figure 1=Extended Data Fig. 3d).
For `CN(Cc1cnc2nc(N)nc(N)c2n1)c1ccc(C(=O)N[C@@H](CCC(=O)O)C(=O)O)cc1` [MTX], the EC50 in experiment [1] came out at 9.48 nM; in experiment [3] (Figure 1=3j, C=RPMI+GlutaMAX (5% dFBS, 1% P/S)) it was 6.36 nM; in experiment [3] (Figure 1=6k, C=RPMI+GlutaMAX (5% dFBS, 1% P/S)), 5.99 nM; in experiment [3] (setting [9]) it was 7.33 nM; in experiment [3] (setting [11]), 6.52 nM; in experiment [6], 30.8 nM. The EC50 in experiment [2] (C=HPLM (5% dFBS, 1% P/S)) amounted to 27 nM; in experiment [2] (setting [10]), 12.3 nM; in experiment [2] (Figure 1=2e, C=RPMI+GlutaMAX (10% FBS, 1% P/S)), 17 nM; in experiment [2] (Figure 1=3c, C=RPMI+GlutaMAX (5% dFBS, 1% P/S)), 7.12 nM; in experiment [2] (setting [7]), 9.21 nM; in experiment [2] (setting [8]), 9.96 nM. Moreover, the concentration for a half-maximal effect (EC50) in experiment [2] (Figure 1=Extended Data Fig.5c, C=RPMI+GlutaMAX (5% dFBS, 1% P/S)) worked out at 10.6 nM; in experiment [4] (Figure 1=6e) it was 1.21 nM; in experiment [5] (Figure 1=3n), 1.07 nM; in experiment [5] (Figure 1=Extended Data Fig. 3d), 5.09 nM.
`Cc1[nH]nc2c1C(c1cc(CO)cc(-c3ccccc3)c1)(C(C)C)C(C#N)=C(N)O2` (stereo not drawn) [SHIN1]: the concentration for a half-maximal effect (EC50) was 1600 nM in experiment [2] (Figure 1=1e, C=RPMI+GlutaMAX (10% FBS, 1% P/S)) and 2.35 nM in experiment [4] (Figure 1=6g).
`Nc1nc(N)c(CC(=O)Nc2cnc(C(=O)N[C@@H](CCC(=O)O)C(=O)O)c(F)c2)c(=O)[nH]1` [TH9619]: the EC50 in experiment [1] was 52.4 nM; in experiment [3] (Figure 1=6i, C=RPMI+GlutaMAX (5% dFBS, 1% P/S)), 1420 nM; in experiment [3] (Figure 1=3h, C=RPMI+GlutaMAX (5% dFBS, 1% P/S)) it was 993 nM; in experiment [3] (setting [9]), 562 nM; in experiment [3] (setting [11]), 694 nM; in experiment [3] (Figure 1=Extended Data Fig. 3f, C=RPMI+GlutaMAX (5% dFBS, 1% P/S, 10 uM Hypoxanthine)), 16.9 nM. Besides, the EC50 stood at 22.2 nM in experiment [6]; 11.3 nM in experiment [2] (C=HPLM (5% dFBS, 1% P/S)); 24.9 nM in experiment [2] (setting [10]); 20.6 nM in experiment [2] (Figure 1=1b, C=RPMI+GlutaMAX (10% FBS, 1% P/S)); 603 nM in experiment [2] (Figure 1=3a, C=RPMI+GlutaMAX (5% dFBS, 1% P/S)); 27.8 nM in experiment [2] (setting [7]). The half-maximal effective concentration (EC50) in experiment [2] (setting [8]) was determined as 21.9 nM; in experiment [2] (Figure 1=Extended Data Fig. 5j, C=RPMI+GlutaMAX (5% dFBS, 1% P/S)) it was 258 nM; in experiment [2] (Figure 1=Extended Data Fig.5a, C=RPMI+GlutaMAX (5% dFBS, 1% P/S)) it was 572 nM; in experiment [2] (Figure 1=Extended Data Fig.5f, C=RPMI+GlutaMAX (5% dFBS, 1% P/S)) it was 439 nM; in experiment [2] (Figure 1=Extended Data Fig.5h, C=RPMI+GlutaMAX (5% dFBS, 1% P/S)) it was 239 nM; in experiment [4] (Figure 1=6c), 1.24 nM. For the same compound, the half-maximal effective concentration (EC50) in experiment [5] (Figure 1=3l) was 0.626 nM; in experiment [5] (Figure 1=Extended Data Fig. 3d), 1.71 nM.
